These results are taken from US5602099A, “δ opioid receptor antagonists” (Aktiebolaget Astra, priority 1993, dated 1997).

One assay addresses T1, μ opioid receptor (Rattus norvegicus, UniProt P33535).
T1 construct: Male Sprague-Dawley rats (300-350 g) from the Canadian Breeding Laboratories were decapitated and after removal of the cerebellum the brains were homogenized; from tissue; host or cells: rat brain (without cerebellum) membranes, male Sprague-Dawley
As to the kind of experiment: μ opioid receptor binding assay, displacement of [3H]DAMGO from rat brain membranes. The source says: (§1) In the case of κ-ligands guinea pig brain homogenates were used, since the relative proportion of κ-binding sites is higher in guinea pig brain than in rat brain. The experimental procedure being used in our laboratory represents a modified version of the binding assay described by Pasternak et al. (Mol. Pharmacol. 11, 340-351, (1975)). Male Sprague-Dawley rats (300-350 g) from the Canadian Breeding Laboratories were decapitated and after removal of the cerebellum the brains were homogenized in 30 volumes of ice-cold standard buffer (50 mM Tris-HCl, pH 7.7). After centrifugation at 30,000×g for 30 min at 4° C. the membranes were reconstituted in the original volume of standard buffer and incubated for 30 min at 37° C. (to realease bound endogenous ligands). […] The incubation was terminated by filtration through Batman GF/B filters under vacuum at 4° C. Following two washings with 5 ml portions of ice-cold standard buffer the filters were transferred to scintillation vials and treated with 1 ml Protosol (New England Nuclear) for 30 min prior to the addition of 0.5 ml acetic acid and 10 ml Aquasol (New England Nuclear). After shaking for 30 min the vials were counted at an efficiency of 40-45%. All experiments were performed in duplicates and repeated at least three times. […] Values of half-maximal inhibition (IC50) of specific binding were obtained graphically from semilogarithmic plots. From the measured IC50-values, binding inhibition constants (Ki) were then calculated based on Cheng and Prusoff's equation (Biochem, Pharmacol. 22, 3099-3102 (1973)). Ratios of the Ki -values in the μ-, δ- and κ-representative binding assays are a measure of the receptor selectivety of the compound under investigation (e.g. Ki^μ /Ki^δ indicates the selectivity for δ-receptors versus μ-receptors).
On the technique in general: Displacement assays read how much labelled ligand stays bound in the presence of the test substance.

The target in the next assay is T2, δ opioid receptor (Rattus norvegicus, UniProt P33533).
T2 construct: Male Sprague-Dawley rats (300-350 g) from the Canadian Breeding Laboratories were decapitated and after removal of the cerebellum the brains were homogenized; from tissue; host or cells: rat brain (without cerebellum) membranes, male Sprague-Dawley
Kind of assay: δ opioid receptor binding assay, displacement of δ-selective radioligand from rat brain membranes. The conditions noted are these: for Ki^μ /Ki^δ: δ-selectivity ratio.
Description: as §1

A further assay deals with T3, δ opioid receptors (Mus musculus, UniProt P32300).
T3 construct: Bioassays Using Isolated Organ Preparations; from tissue; host or cells: mouse vas deferens (isolated organ)
As to the kind of experiment: Mouse vas deferens (MVD) bioassay, antagonism of electrically evoked contraction inhibition by δ-selective agonists. In kind it is tissue-based. Conditions: MVD assay, means of 3-8 determinations. An excerpt: a) Biosassys based on inhibition of electrically evoked contractions of the mouse vas deferens (MVD) and of the guinea pig ileum (GPI). In the GPI assay the opioid effect is primarily mediated by μ opioid receptors, whereas in the MVD assay the inhibition of the contractions is mostly due to interaction with δ opioid receptors.
The GPI and MVD bioassays were carded out as reported in P. W. Schiller et al., Biochem. Biophys. Res. Commun 85, 1332-1338 (1978) and J. Di Maio et al., J. Med. Chem. 25, 1432-1438 (1982). A log dose-response curve was determind with [Leu^5 ]enkephalin as standard for each ileum and vas preparation, and IC50 values of the compounds being tested were normalized according to A. A Waterfield et al., Eur. J. Pharmacol. 58, 11-18 (1979). […] These determinations were made with the MVD assay, using three different δ-selective agonists ([Leu^5 ] enkephalin, DPDPE and [D-Ala^2 ]deltorphin I].

Setting [1] is: Ke (nM) against DPDPE, δ agonist DPDPE.
[2] abbreviates: Ke (nM) against [D-Ala2]deltorphin I, δ agonist [D-Ala2]deltorphin I.
Where [3] appears, read: Ke (nM) against [Leu5]Enkephalin, δ agonist [Leu5]enkephalin.
[4] abbreviates: rat brain membranes, means of 3 determinations, read-out: Ki^μ.
Where [5] appears, read: rat brain membranes, means of 3 determinations, read-out: Ki^.xi.
[6] abbreviates: δ agonist DPDPE, read-out: Ke (nM) against DPDPE.

One may read the Ki as the equilibrium dissociation constant of an inhibitor or competing ligand from its target.

Like-named read-outs stand apart in the source and are kept apart here. Peptide text beside a SMILES is read from it.

T3 sequence (P32300 whole entry): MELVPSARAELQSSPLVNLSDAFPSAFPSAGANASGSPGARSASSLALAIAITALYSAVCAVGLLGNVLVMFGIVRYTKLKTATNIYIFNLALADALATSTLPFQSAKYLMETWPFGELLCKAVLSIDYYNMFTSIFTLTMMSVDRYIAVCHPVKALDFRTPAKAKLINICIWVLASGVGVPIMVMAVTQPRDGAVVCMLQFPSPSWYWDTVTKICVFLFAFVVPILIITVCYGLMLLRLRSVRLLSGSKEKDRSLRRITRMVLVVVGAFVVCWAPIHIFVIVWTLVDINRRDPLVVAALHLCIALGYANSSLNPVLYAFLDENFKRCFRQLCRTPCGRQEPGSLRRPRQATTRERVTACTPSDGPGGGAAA
T1 sequence (P33535 whole entry): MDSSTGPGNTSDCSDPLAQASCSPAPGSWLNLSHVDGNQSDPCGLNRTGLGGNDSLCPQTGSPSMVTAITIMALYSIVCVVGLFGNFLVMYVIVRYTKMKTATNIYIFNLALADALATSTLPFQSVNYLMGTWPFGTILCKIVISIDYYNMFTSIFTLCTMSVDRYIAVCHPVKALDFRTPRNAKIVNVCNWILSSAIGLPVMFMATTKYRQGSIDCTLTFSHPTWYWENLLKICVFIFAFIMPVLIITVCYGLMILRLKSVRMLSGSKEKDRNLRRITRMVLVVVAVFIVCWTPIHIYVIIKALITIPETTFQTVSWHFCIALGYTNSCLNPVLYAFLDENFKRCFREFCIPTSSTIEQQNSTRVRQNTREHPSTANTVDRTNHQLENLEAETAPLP
T2 sequence (P33533 whole entry): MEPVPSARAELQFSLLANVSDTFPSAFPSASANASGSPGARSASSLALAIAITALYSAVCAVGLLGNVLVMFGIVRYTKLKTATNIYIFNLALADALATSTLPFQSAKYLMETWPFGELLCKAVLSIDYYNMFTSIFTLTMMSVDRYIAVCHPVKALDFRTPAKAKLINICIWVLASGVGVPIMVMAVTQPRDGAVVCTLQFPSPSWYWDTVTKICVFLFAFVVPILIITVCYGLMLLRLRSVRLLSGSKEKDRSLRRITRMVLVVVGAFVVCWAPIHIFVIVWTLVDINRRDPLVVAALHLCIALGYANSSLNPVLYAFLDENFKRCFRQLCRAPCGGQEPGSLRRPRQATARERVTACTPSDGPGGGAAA

Consider `N[C@@H](Cc1ccc(O)cc1)C(=O)N1Cc2ccccc2C[C@H]1C(=O)N[C@H](C(=O)N[C@@H](Cc1ccccc1)C(=O)O)c1ccccc1` [HTyrTicPhgPheOH, H-Tyr-Tic-Phg-Phe-OH] (HELM PEPTIDE1{Y.[Tic].[Phg].F}$$$$V2.0), for which the Ki at μ opioid receptor stood at 29000 nM; on δ opioid receptor, 3.01 nM. Besides, the “Ki^μ /Ki^δ” value on δ opioid receptor turned out to be 9630. Moreover, the Kb on δ opioid receptors (setting [1]) stood at 21.5 nM; at δ opioid receptors (setting [2]) it was 8.31 nM; on δ opioid receptors (setting [3]), 13.8 nM.
On to `CCCCCCN[C@@H](Cc1ccc(O)cc1)C(=O)N1Cc2ccccc2C[C@H]1C(=O)N[C@@H](Cc1ccccc1)C(=O)N[C@@H](Cc1ccccc1)C(=O)O` [Tyr(N^α Hex)-TicPhePheOH, Tyr(N^α Hex)-Tic-Phe-Phe-OH], for which the results for the Ki on μ opioid receptor and at δ opioid receptor were 1080 nM and 0.951 nM, respectively. For the same compound, the Kb on δ opioid receptors (setting [1]) is 4.28 nM; on δ opioid receptors (setting [2]), 10.6 nM; at δ opioid receptors (setting [3]), 9.37 nM.
As to `NC(=O)[C@H](Cc1ccccc1)NC(=O)[C@H](Cc1ccccc1)NC(=O)[C@@H]1Cc2ccccc2CN1C(=O)[C@@H](N)Cc1ccc(O)cc1` [HTyrTicPhePheNH2, H-Tyr-Tic-Phe-Phe-NH2] (HELM PEPTIDE1{Y.[Tic].F.F.[am]}$$$$V2.0), the Ki on μ opioid receptor (setting [4]) worked out at 78.8 nM; on δ opioid receptor (setting [5]), 3 nM. Also, the results for the Kb on δ opioid receptors (setting [2]), on δ opioid receptors (setting [3]) and on δ opioid receptors (setting [6]) were 14.4 nM, 15.7 nM and 18 nM, respectively.
With `CC(C)[C@H](NC(=O)[C@H](Cc1ccccc1)NC(=O)[C@H](Cc1ccccc1)NC(=O)[C@@H]1Cc2ccccc2CN1C(=O)[C@@H](N)Cc1ccc(O)cc1)C(=O)N[C@H](C(=O)NCC(N)=O)C(C)C` [HTyrTicPhePheValValGlyNH2, H-Tyr-Tic-Phe-Phe-Val-Val-Gly-NH2] (HELM PEPTIDE1{Y.[Tic].F.F.V.V.G.[am]}$$$$V2.0), the Ki turned out to be 3290 nM on μ opioid receptor and 1.43 nM at δ opioid receptor. The “Ki^μ /Ki^δ” value on δ opioid receptor came to 2300. Further, the Kb is 6.36 nM at δ opioid receptors (setting [1]), 4.96 nM on δ opioid receptors (setting [2]) and 6.48 nM at δ opioid receptors (setting [3]).
In the case of `N[C@@H](Cc1ccc(O)cc1)C(=O)N1Cc2ccccc2C[C@H]1C(=O)N[C@@H](Cc1ccccc1)C(=O)O` [HTyrTicPheOH, H-Tyr-Tic-Phe-OH] (HELM PEPTIDE1{Y.[Tic].F}$$$$V2.0), the Ki was 1280 nM on μ opioid receptor (setting [4]) and 9.07 nM at δ opioid receptor (setting [5]). For the same compound, the “Ki^μ /Ki^δ” value on δ opioid receptor came to 141. For the same compound, the results for the Kb at δ opioid receptors (setting [1]), at δ opioid receptors (setting [2]) and at δ opioid receptors (setting [3]) were 16.1 nM, 12.6 nM and 11.7 nM, respectively.
Take `NC(=O)[C@H](Cc1c[nH]c2ccccc12)NC(=O)[C@H](Cc1ccccc1)NC(=O)[C@@H]1Cc2ccccc2CN1C(=O)[C@@H](N)Cc1ccc(O)cc1` [HTyrTicPheTrpNH2, H-Tyr-Tic-Phe-Trp-NH2] (HELM PEPTIDE1{Y.[Tic].F.W.[am]}$$$$V2.0): the “Ki^μ /Ki^δ” value at δ opioid receptor came to 258. Also, the Kb was found to be 41.3 nM at δ opioid receptors (setting [1]), 38.6 nM at δ opioid receptors (setting [2]) and 49.5 nM at δ opioid receptors (setting [3]).
For the compound `N[C@@H](Cc1ccc(O)cc1)C(=O)N1Cc2ccccc2C[C@H]1C(=O)N[C@@H](Cc1cccc2ccccc12)C(=O)N[C@@H](Cc1ccccc1)C(=O)O` [HTyrTic-1-NalPheOH, H-Tyr-Tic-1-Nal-Phe-OH] (HELM PEPTIDE1{Y.[Tic].[O=C([C@H](Cc1cccc2ccccc12)N[*:1])[*:2]].F}$$$$V2.0), the Ki is 1120 nM at μ opioid receptor and 1.14 nM on δ opioid receptor. In addition, on δ opioid receptor, the “Ki^μ /Ki^δ” value amounted to 982.
For the compound `NC(=O)[C@H](CO)NC(=O)[C@@H]1CCCN1C(=O)[C@H](Cc1ccc(O)cc1)NC(=O)[C@H](Cc1ccccc1)NC(=O)[C@H](Cc1ccccc1)NC(=O)[C@@H]1Cc2ccccc2CN1C(=O)[C@@H](N)Cc1ccc(O)cc1` [HTyrTicPhePheTyrProSerNH2, H-Tyr-Tic-Phe-Phe-Tyr-Pro-Ser-NH2] (HELM PEPTIDE1{Y.[Tic].F.F.Y.P.S.[am]}$$$$V2.0), the Ki on μ opioid receptor amounted to 658 ± 136 nM; on δ opioid receptor it was 0.9 nM. In addition, the “Ki^μ /Ki^δ” value on δ opioid receptor was 731. The Kb came to 4.63 nM at δ opioid receptors (setting [1]), 3.9 nM at δ opioid receptors (setting [2]) and 4.78 nM at δ opioid receptors (setting [3]).
Consider `N[C@@H](Cc1ccc(O)cc1)C(=O)N1Cc2ccccc2C[C@H]1C(=O)N[C@@H](Cc1c[nH]c2ccccc12)C(=O)N[C@@H](Cc1ccccc1)C(=O)O` [HTyrTicTrpPheOH, H-Tyr-Tic-Trp-Phe-OH] (HELM PEPTIDE1{Y.[Tic].W.F}$$$$V2.0), for which the “Ki^μ /Ki^δ” value on δ opioid receptor came out at 5950. In addition, the results for the Kb at δ opioid receptors (setting [1]), at δ opioid receptors (setting [2]) and on δ opioid receptors (setting [3]) were 2.56 nM, 1.65 nM and 2.37 nM, respectively.
Consider `CN(C[C@@H]1Cc2ccccc2CN1C(=O)[C@@H](N)Cc1ccc(O)cc1)[C@@H](Cc1ccccc1)C(=O)N[C@@H](Cc1ccccc1)C(=O)O` [HTyrTic.psi.[CH2NCH3]PhePheOH, H-Tyr-Tic.PSI.[CH2 --NCH3 ]Phe-Phe-OH], for which the Ki was found to be 13400 nM on μ opioid receptor (setting [4]) and 0.842 nM at δ opioid receptor (setting [5]). For the same compound, the Kb is 4.76 nM at δ opioid receptors (setting [6]); 2.89 nM on δ opioid receptors (δ agonist [D-Ala2]deltorphin I, read-out: Ke (nM) against [D-Ala2]deltorphin I); 6.28 nM at δ opioid receptors (δ agonist [Leu5]enkephalin, read-out: Ke (nM) against [Leu5]Enkephalin).
`N[C@@H](Cc1ccc(O)cc1)C(=O)N1Cc2ccccc2C[C@H]1C(=O)N[C@@H](CCc1ccccc1)C(=O)N[C@@H](Cc1ccccc1)C(=O)O` [HTyrTicHfePheOH, H-Tyr-Tic-Hfe-Phe-OH] (HELM PEPTIDE1{Y.[Tic].[O=C([C@H](CCc1ccccc1)N[*:1])[*:2]].F}$$$$V2.0): the Ki on μ opioid receptor stood at 1990 nM; at δ opioid receptor, 0.277 nM. Further, the “Ki^μ /Ki^δ” value at δ opioid receptor was determined as 7180. Besides, the Kb on δ opioid receptors (setting [1]) was found to be 0.609 nM; at δ opioid receptors (setting [2]), 0.408 nM; at δ opioid receptors (setting [3]) it was 1.23 nM.
Take `N=C(N)NCCC[C@H](N)C(=O)N[C@@H](Cc1ccc(O)cc1)C(=O)N1Cc2ccccc2C[C@H]1C(=O)N[C@@H](Cc1ccccc1)C(=O)N[C@@H](Cc1ccccc1)C(N)=O` [HArgTyrTicPhePheNH2, H-Arg-Tyr-Tic-Phe-Phe-NH2] (HELM PEPTIDE1{R.Y.[Tic].F.F.[am]}$$$$V2.0): the Ki on μ opioid receptor (setting [4]) is 107 ± 2 nM; at δ opioid receptor (setting [5]) it was 4.79 nM. The “Ki^μ /Ki^δ” value at δ opioid receptor was 22.3.
Regarding `NC(=O)[C@H](Cc1ccccc1)NC(=O)[C@H](Cc1c[nH]c2ccccc12)NC(=O)[C@@H]1Cc2ccccc2CN1C(=O)[C@@H](N)Cc1ccc(O)cc1` [HTyrTicTrpPheNH2, H-Tyr-Tic-Trp-Phe-NH2] (HELM PEPTIDE1{Y.[Tic].W.F.[am]}$$$$V2.0), the “Ki^μ /Ki^δ” value on δ opioid receptor was found to be 709. Further, the Kb was found to be 4.65 nM on δ opioid receptors (setting [1]), 2.31 nM at δ opioid receptors (setting [2]) and 3.24 nM at δ opioid receptors (setting [3]).
For `C=CCN(CC=C)[C@@H](Cc1ccc(O)cc1)C(=O)NC(C)(C)C(=O)NC(C)(C)C(=O)N[C@@H](Cc1ccccc1)C(=O)N[C@@H](CC(C)C)C(=O)O` [ICI 174864, N,N-diallyl-Tyr-Aib-Aib-Phe-Leu-OH, reference compound] (HELM PEPTIDE1{[C=CCN(CC=C)[C@@H](Cc1ccc(O)cc1)C(=O)[*:2]].[Aib].[Aib].F.L}$$$$V2.0), the “δ-selectivity, times less than the δ antagonists of this application” value at δ opioid receptor (comparison with the δ antagonists described in this patent application) was 10-300 times.
As for `NC(=O)[C@H](Cc1ccccc1)NC(=O)[C@@H]1Cc2ccccc2CN1C(=O)[C@@H](N)Cc1ccc(O)cc1` [HTyrTicPheNH2, H-Tyr-Tic-Phe-NH2] (HELM PEPTIDE1{Y.[Tic].F.[am]}$$$$V2.0), the “Ki^μ /Ki^δ” value at δ opioid receptor is recorded as 52.0. In addition, the values for the Kb at δ opioid receptors (setting [1]), on δ opioid receptors (setting [2]) and on δ opioid receptors (setting [3]) were 96.8 nM, 58.9 nM and 43.9 nM, respectively.
